Results published in patent publication US20240294541A1, “COMPOUNDS CONSTITUTING C20-MODIFIED SALINOMYCIN DERIVATIVES, A METHOD FOR OBTAINING THE SAME, A COMPOSITION CONTAINING THE SAME AND A USE OF SAID COMPOUNDS” (FILECLO SPOLKA Z OGRANICZONA ODPOWIEDZIALNOSCIA, priority 2021, published 2024).
Read-outs that look alike come from different tables or passages of the source.

Experiments:
Format in all cases: cell-based
Hs294T (human melanoma) = test: cells; settings: for IC50: Hs 294T, read-out: IC50 (nM) Hs294T; for SI Hs294T: selectivity coefficient vs normal BALB/3T3 fibroblasts
[1] = tested on: BALB/3T3 (normal mouse fibroblasts); test: In vitro cytotoxicity, SRB assay, normal BALB/3T3 fibroblasts
[2] = tested on: MIA PaCa-2 (human pancreatic cancer); test: cells; settings: for SI MIA PaCa-2: selectivity coefficient vs normal BALB/3T3 fibroblasts
[3] = tested on: A2780Cis (cisplatin-resistant human ovarian cancer); test: In vitro cytotoxicity, SRB assay, A2780Cis; settings: for IC50: Homo sapiens, A2780cis, read-out: IC50 (nM) A2780Cis
[4] = tested on: NCI-H358 (human lung cancer); test: cells; settings: for SI NCI-H358: selectivity coefficient vs normal BALB/3T3 fibroblasts
[5] = tested on: PLC/PRF/5 (human liver cancer); test: cells; settings: for SI PLC/PRF/5: selectivity coefficient vs normal BALB/3T3 fibroblasts
[6] = tested on: MV-4-11 (human biphenotypic leukaemia); test: In vitro cytotoxicity, MTT assay, MV-4-11; settings: for IC50: Homo sapiens, MV4-11, read-out: IC50 (nM) MV4-11
[7] = tested on: SNU-16 (human gastric cancer); test: cells; settings: for SI SNU-16: selectivity coefficient vs normal BALB/3T3 fibroblasts
[8] = Table 4, Hs294T human melanoma cells
[9] = Table 4, BALB/3T3 normal mouse fibroblasts, read-out: IC50 (nM) BALB3T3 normal cells
[10] = Table 4, MIA PaCa-2 human pancreatic cancer cells, read-out: IC50 (nM) MIA PaCa-2
[11] = Table 4, NCI-H358 human lung cancer cells, read-out: IC50 (nM) NCI-H358
[12] = Table 4, PLC/PRF/5 human liver cancer cells, read-out: IC50 (nM) PLC/PRF/5
[13] = Table 4, SNU-16 human gastric cancer cells, read-out: IC50 (nM) SNU-16

| Structure (SMILES) | IC50 (Hs294T (human melanoma); [8]) [nM] | SI Hs294T (Hs294T (human melanoma); Table 4) | IC50 [1, 9] [nM] | IC50 [2, 10] [nM] | SI MIA PaCa-2 ([2]; Table 4) | SI A2780Cis [3] | IC50 [3] [nM] | IC50 [4, 11] [nM] | SI NCI-H358 ([4]; Table 4) | IC50 [5, 12] [nM] | SI PLC/PRF/5 ([5]; Table 4) | SI MV4-11 [6] | IC50 [6] [nM] | IC50 [7, 13] [nM] | SI SNU-16 ([7]; Table 4) | further results |
| --- | --- | --- | --- | --- | --- | --- | --- | --- | --- | --- | --- | --- | --- | --- | --- | --- |
| CC[C@@H](C(=O)[C@@H](C)[C@@H](O)[C@H](C)[C@@H]1O[C@@H]([C@@H](CC)C(=O)O)CC[C@@H]1C)[C@H]1O[C@]2(C=C[C@@H](NC(=O)OCCOC)[C@]3(CC[C@@](C)([C@H]4CC[C@](O)(CC)[C@H](C)O4)O3)O2)[C@H](C)C[C@@H]1C [FLC-00459-1•Na] | 786 | 1.4 | 1070 | 78.3 | 13.6 | 30.7 | 34.7 | 531 | 2.01 | 92.2 | 11.6 | 31.8 | 33.6 | 535 | 2.0 | – |
| CC[C@@H](C(=O)[C@@H](C)[C@@H](O)[C@H](C)[C@@H]1O[C@@H]([C@@H](CC)C(=O)O)CC[C@@H]1C)[C@H]1O[C@]2(C=C[C@@H](NC(=O)OCCOCCCl)[C@]3(CC[C@@](C)([C@H]4CC[C@](O)(CC)[C@H](C)O4)O3)O2)[C@H](C)C[C@@H]1C [FLC-00454-1•Na] | 1040 | 0.3 | 313 | 45.2 | 6.9 | 58.9 | 5.32 | 434 | 0.72 | 63.1 | 5.0 | 17.8 | 17.6 | 103 | 3.0 | – |
| CC[C@@H](C(=O)[C@@H](C)[C@@H](O)[C@H](C)[C@@H]1O[C@@H]([C@@H](CC)C(=O)O)CC[C@@H]1C)[C@H]1O[C@]2(C=C[C@@H](NC(=O)OCCCCCCCl)[C@]3(CC[C@@](C)([C@H]4CC[C@](O)(CC)[C@H](C)O4)O3)O2)[C@H](C)C[C@@H]1C [FLC-00444-1•Na] | 627 | 0.2 | 148 | 21.3 | 6.9 | 98.9 | 1.5 | 53.7 | 2.75 | 4 | 36.9 | 98.9 | 1.5 | 105 | 1.4 | – |
| CC[C@@H](C(=O)[C@@H](C)[C@@H](O)[C@H](C)[C@@H]1O[C@@H]([C@@H](CC)C(=O)O)CC[C@@H]1C)[C@H]1O[C@]2(C=C[C@@H](NC(=O)Nc3c(F)c(F)c(F)c(F)c3F)[C@]3(CC[C@@](C)([C@H]4CC[C@](O)(CC)[C@H](C)O4)O3)O2)[C@H](C)C[C@@H]1C [FLC-00428-1•Na] | 173 | 1.4 | 244 | 36.9 | 6.6 | 56.0 | 4.36 | 57.3 | 4.27 | 7.85 | 31.1 | 182.9 | 1.34 | 114 | 2.1 | – |
| CC[C@@H](C(=O)[C@@H](C)[C@@H](O)[C@H](C)[C@@H]1O[C@@H]([C@@H](CC)C(=O)O)CC[C@@H]1C)[C@H]1O[C@]2(C=C[C@@H](NC(=O)OC(CCl)CCl)[C@]3(CC[C@@](C)([C@H]4CC[C@](O)(CC)[C@H](C)O4)O3)O2)[C@H](C)C[C@@H]1C [FLC-00440-1•Na] | 130 | 0.9 | 115 | 43.6 | 2.6 | 26.1 | 4.41 | 60.2 | 1.91 | 9.5 | 12.1 | 32.6 | 3.52 | 400 | 0.3 | – |
| CC[C@@H](C(=O)[C@@H](C)[C@@H](O)[C@H](C)[C@@H]1O[C@@H]([C@@H](CC)C(=O)O)CC[C@@H]1C)[C@H]1O[C@]2(C=C[C@@H](NC(=O)OCCF)[C@]3(CC[C@@](C)([C@H]4CC[C@](O)(CC)[C@H](C)O4)O3)O2)[C@H](C)C[C@@H]1C [FLC-00437-1•Na] | 264 | 0.7 | 192 | 45.7 | 4.2 | 40.8 | 4.7 | 184 | 1.04 | 42.3 | 4.5 | 37.5 | 5.11 | 342 | 0.6 | – |
| CC[C@@H](C(=O)[C@@H](C)[C@@H](O)[C@H](C)[C@@H]1O[C@@H]([C@@H](CC)C(=O)O)CC[C@@H]1C)[C@H]1O[C@]2(C=C[C@@H](NC(N)=O)[C@]3(CC[C@@](C)([C@H]4CC[C@](O)(CC)[C@H](C)O4)O3)O2)[C@H](C)C[C@@H]1C [FLC-00391-1] | 5870 | 0.6 | 3570 | 3090 | 1.2 | 33.0 | 108 | 5150 | 0.69 | 584 | 6.1 | 10.2 | 349 | 1330 | 2.7 | – |
| CC[C@@H](C(=O)[C@@H](C)[C@@H](O)[C@H](C)[C@@H]1O[C@@H]([C@@H](CC)C(=O)O)CC[C@@H]1C)[C@H]1O[C@]2(C=C[C@@H](NC(=O)OCCOCc3ccccc3)[C@]3(CC[C@@](C)([C@H]4CC[C@](O)(CC)[C@H](C)O4)O3)O2)[C@H](C)C[C@@H]1C [FLC-00451-1•Na] | 542 | 0.4 | 204 | 14.7 | 13.9 | 96.0 | 2.13 | 307 | 0.67 | 42 | 4.9 | 127.9 | 1.6 | 126 | 1.6 | – |
| CC[C@@H](C(=O)[C@@H](C)[C@@H](O)[C@H](C)[C@@H]1O[C@@H]([C@@H](CC)C(=O)O)CC[C@@H]1C)[C@H]1O[C@]2(C=C[C@@H](NC(=O)OCC(F)(F)F)[C@]3(CC[C@@](C)([C@H]4CC[C@](O)(CC)[C@H](C)O4)O3)O2)[C@H](C)C[C@@H]1C [FLC-00395-1•Na] | – | 1.6 | – | – | 2.4 | 43.8 | 1.78 | – | 0.65 | – | 2.1 | 177.2 | 0.44 | – | 0.8 | IC50 (Hs294T (human melanoma); Homo sapiens): 47.3 nM; IC50 ([1]; Mus musculus, BALB/3T3, read-out: IC50 (nM) BALB3T3 normal cells): 78 nM; IC50 ([2]; Homo sapiens, MIA PaCa-2, read-out: IC50 (nM) MIA PaCa-2): 33.1 nM; IC50 ([4]; Homo sapiens, NCI-H358, read-out: IC50 (nM) NCI-H358): 121 nM; IC50 ([5]; Homo sapiens, PLC-PRF-5, read-out: IC50 (nM) PLC/PRF/5): 37.5 nM; IC50 ([7]; Homo sapiens, SNU-16, read-out: IC50 (nM) SNU-16): 104 nM |
| CC[C@@H](C(=O)[C@@H](C)[C@@H](O)[C@H](C)[C@@H]1O[C@@H]([C@@H](CC)C(=O)O)CC[C@@H]1C)[C@H]1O[C@]2(C=C[C@@H](NC(=O)C(=O)NC3CC3)[C@]3(CC[C@@](C)([C@H]4CC[C@](O)(CC)[C@H](C)O4)O3)O2)[C@H](C)C[C@@H]1C [FLC-00441-1•Na] | 969 | 1.2 | 1120 | 373 | 3.0 | 25.7 | 43.8 | 930 | 1.21 | 208 | 5.4 | 42.5 | 26.5 | 2600 | 0.4 | – |
| CC[C@@H](C(=O)[C@@H](C)[C@@H](O)[C@H](C)[C@@H]1O[C@@H]([C@@H](CC)C(=O)O)CC[C@@H]1C)[C@H]1O[C@]2(C=C[C@@H](NC(=O)Nc3ccc(Cl)c(Cl)c3)[C@]3(CC[C@@](C)([C@H]4CC[C@](O)(CC)[C@H](C)O4)O3)O2)[C@H](C)C[C@@H]1C [FLC-00370-1•Na] | 1860 | 2.4 | 4400 | 489 | 9.0 | 134.5 | 32.7 | 826 | 5.33 | 144 | 30.5 | 106.9 | 41.2 | 1520 | 2.9 | – |
| CC[C@@H](C(=O)[C@@H](C)[C@@H](O)[C@H](C)[C@@H]1O[C@@H]([C@@H](CC)C(=O)O)CC[C@@H]1C)[C@H]1O[C@]2(C=C[C@@H](NC(=O)C(=O)NCCCc3ccccc3)[C@]3(CC[C@@](C)([C@H]4CC[C@](O)(CC)[C@H](C)O4)O3)O2)[C@H](C)C[C@@H]1C [FLC-00458-1•Na] | 1590 | 0.5 | 727 | 61.9 | 11.7 | 29.6 | 24.5 | 368 | 1.97 | 84.4 | 8.6 | 31.3 | 23.2 | 323 | 2.2 | – |
